Test results published in patent US9102621B2, “Acyl sulfonamide compounds” (Pfizer Limited, priority 2010, dated 2015).
Counter-ions that a name gives are not always drawn.

What follows are molecules tested against T1, Nav1.7 (or SCN9A) channel (Homo sapiens, UniProt Q15858) (assay: Nav1.7 (hSCN9A) channel block, PatchXpress whole-cell electrophysiology). Details: PatchXpress platform; HEK cells stably transfected with hSCN9A; estimated IC-50 calculated from single point % inhibition at V1/2; read-out: Nav1.7 EIC50.
T1 construct: expressed in transfected cells
Type: cell-based
Protocol: The ability of the compounds of formula (I) to block the Nav1.7 (or SCN9A) channel were measured using the assay described below.
Human Embryonic Kidney (HEK) cells were transfected with an hSCN9A construct using lipofectamine reagent (Invitrogen), using standard techniques. Cells stably expressing the hSCN9A constructs were identified by their resistance to G-418 (400 μg/ml). Clones were screened for expression using the whole-cell voltage-clamp technique.
HEK cells stably transfected with hSCN9A were maintained in DMEM medium supplemented with 10% heat-inactivated fetal bovine serum and 400 μg/ml G-418 in an incubator at 37° C. with a humidified atmosphere of 10% CO2. For HTS, cells were harvested from flasks by trypsinization and replated in an appropriate multi-well plate (typically 96 or 384 wells/plate) such that confluence would be achieved within 24 hours of plating. For electrophysiological studies, cells were removed from the culture flask by brief trypsinization and re-plated at low density onto glass cover slips. Cells were typically used for electrophysiological experiments within 24 to 72 hours after plating.
Cover slips containing HEK cells expressing hSCN9A were placed in a bath on the stage of an inverted microscope and perfused (approximately 1 ml/minutes) with extracellular solution of the following composition: 138 mM NaCl, 2 mM CaCl2, 5.4 mM KCl, 1 mM MgCl2, 10 mM glucose, and 10 mM HEPES, pH 7.4, with NaOH. […] The osmolarity of the extracellular and intracellular solutions was 300 mOsm/kg and 295 mOsm/kg, respectively. All recordings were made at room temperature (22-24° C.) using AXOPATCH 200B amplifiers and PCLAMP software (Axon Instruments, Burlingame, Calif.).
hSCN9A currents in HEK cells were measured using the whole-cell configuration of the patch-clamp technique (Hamill et al., 1981). Uncompensated series resistance was typically 2 to 5 mega ohms and >85% series resistance compensation was routinely achieved. As a result, voltage errors were negligible and no correction was applied. Current records were acquired at 20 to 50 KHz and filtered at 5 to 10 KHz.
HEK cells stably transfected with hSCN9A were viewed under Hoffman contrast optics and placed in front of an array of flow pipes emitting either control or compound-containing extracellular solutions. All compounds were dissolved in dimethyl sulfoxide to make 10 mM stock solutions, which were then diluted into extracellular solution to attain the final concentrations desired. […] The voltage-dependence of inactivation was determined by applying a series of depolarizing prepulses (8 sec long in 10 mV increments) from a negative holding potential. The voltage was then immediately stepped to 0 mV to assess the magnitude of the sodium current. Currents elicited at 0 mV were plotted as a function of prepulse potential to allow estimation of the voltage at which 50% of the channels were inactivated (midpoint of inactivation or V1/2). Compounds were tested for their ability to inhibit hSCN9A sodium channels by activating the channel with a 20 msec voltage step to 0 mV following an 8 second conditioning prepulse to the empirically determined V1/2. Compound effect (% inhibition) was determined by difference in current amplitude before and after application of test compounds. […] Inhibition values <20% and >80% were excluded from the calculation.
Electrophysiological assays were conducted with PatchXpress 7000 hardware and associated software (Molecular Devices Corp). All assay buffers and solutions were identical to those used in conventional whole-cell voltage clamp experiments described above. hSCN9A cells were grown as above to 50%-80% confluency and harvested by trypsinization. Trypsinized cells were washed and resuspended in extracellular buffer at a concentration of 1×10^6 cells/ml. The onboard liquid handling facility of the PatchXpress was used for dispensing cells and application of test compounds. […]

T1 sequence (Q15858 whole entry): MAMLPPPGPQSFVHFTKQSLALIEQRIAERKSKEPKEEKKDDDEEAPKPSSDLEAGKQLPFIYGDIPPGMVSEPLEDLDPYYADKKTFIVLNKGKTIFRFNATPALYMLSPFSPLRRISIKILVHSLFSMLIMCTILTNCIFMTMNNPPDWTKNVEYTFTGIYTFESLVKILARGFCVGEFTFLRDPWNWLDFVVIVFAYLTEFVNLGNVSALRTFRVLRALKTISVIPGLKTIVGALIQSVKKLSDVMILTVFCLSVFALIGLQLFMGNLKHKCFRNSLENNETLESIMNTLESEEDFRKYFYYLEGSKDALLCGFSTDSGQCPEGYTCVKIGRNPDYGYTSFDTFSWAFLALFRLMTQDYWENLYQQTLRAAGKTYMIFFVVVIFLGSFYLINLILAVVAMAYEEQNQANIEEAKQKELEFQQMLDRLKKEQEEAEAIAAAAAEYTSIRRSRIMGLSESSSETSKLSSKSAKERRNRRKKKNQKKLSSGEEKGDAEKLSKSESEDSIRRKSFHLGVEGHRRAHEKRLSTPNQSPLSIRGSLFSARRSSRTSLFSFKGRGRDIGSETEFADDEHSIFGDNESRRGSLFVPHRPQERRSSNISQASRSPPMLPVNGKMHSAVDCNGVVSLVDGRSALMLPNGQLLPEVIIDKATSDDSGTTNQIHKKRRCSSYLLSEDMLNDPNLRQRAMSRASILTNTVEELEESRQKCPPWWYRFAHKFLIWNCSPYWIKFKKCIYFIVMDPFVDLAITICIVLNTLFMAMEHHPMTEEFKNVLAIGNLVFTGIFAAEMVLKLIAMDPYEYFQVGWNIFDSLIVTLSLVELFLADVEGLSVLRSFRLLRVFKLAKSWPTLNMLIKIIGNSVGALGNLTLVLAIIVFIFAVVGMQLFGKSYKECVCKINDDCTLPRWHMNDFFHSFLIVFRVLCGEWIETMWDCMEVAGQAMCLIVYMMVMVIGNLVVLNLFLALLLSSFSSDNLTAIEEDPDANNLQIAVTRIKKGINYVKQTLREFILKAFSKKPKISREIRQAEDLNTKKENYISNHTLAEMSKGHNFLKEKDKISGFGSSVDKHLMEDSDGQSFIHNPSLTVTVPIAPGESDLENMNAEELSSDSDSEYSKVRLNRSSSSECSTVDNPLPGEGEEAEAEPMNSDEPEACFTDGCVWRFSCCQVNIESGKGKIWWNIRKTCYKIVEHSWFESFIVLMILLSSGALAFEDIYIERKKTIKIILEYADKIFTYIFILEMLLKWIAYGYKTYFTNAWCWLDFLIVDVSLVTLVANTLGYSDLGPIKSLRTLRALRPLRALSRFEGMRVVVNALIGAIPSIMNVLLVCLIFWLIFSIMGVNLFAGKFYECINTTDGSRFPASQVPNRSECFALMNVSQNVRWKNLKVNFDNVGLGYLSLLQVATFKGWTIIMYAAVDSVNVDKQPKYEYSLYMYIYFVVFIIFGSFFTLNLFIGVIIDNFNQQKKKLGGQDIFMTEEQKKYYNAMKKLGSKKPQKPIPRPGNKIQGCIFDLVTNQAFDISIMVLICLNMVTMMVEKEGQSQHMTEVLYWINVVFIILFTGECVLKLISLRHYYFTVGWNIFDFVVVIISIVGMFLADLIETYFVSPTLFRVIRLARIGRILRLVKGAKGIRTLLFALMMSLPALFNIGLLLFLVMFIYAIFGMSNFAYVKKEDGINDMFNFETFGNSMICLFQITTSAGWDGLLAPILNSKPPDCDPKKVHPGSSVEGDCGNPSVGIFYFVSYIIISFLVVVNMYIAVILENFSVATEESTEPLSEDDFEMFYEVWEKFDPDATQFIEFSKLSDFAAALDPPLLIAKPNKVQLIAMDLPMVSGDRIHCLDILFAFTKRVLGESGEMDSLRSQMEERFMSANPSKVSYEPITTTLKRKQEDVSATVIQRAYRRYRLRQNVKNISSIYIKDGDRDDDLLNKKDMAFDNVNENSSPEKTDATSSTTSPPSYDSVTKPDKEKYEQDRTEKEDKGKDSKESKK

| Structure (SMILES) | IC50 [nM] |
| --- | --- |
| CC(Oc1ncc(OCc2cc(F)c(C(=O)NS(C)(=O)=O)cc2Cl)cc1Cl)C(F)(F)F (centres unmarked) [Example 31, 5-Chloro-4-((5-chloro-6-(1,1,1-trifluoropropan-2-yloxy)pyridin-3-yloxy)methyl)-2-fluoro-N-(methylsulfonyl)benzamide] | < 100 |
| [2H]C([2H])([2H])C(Oc1ncc(OCc2cc(F)c(C(=O)NS(C)(=O)=O)cc2Cl)cc1Cl)(C([2H])([2H])[2H])C([2H])([2H])[2H] [Example 32, 4-{[(6-d9-tert-Butoxy-5-chloropyridin-3-yl)oxy]methyl}-5-chloro-2-fluoro-N-(methylsulfonyl)benzamide] | 11 |
| COc1ncc(OCc2cc(F)c(C(=O)NS(C)(=O)=O)cc2Cl)cc1Cl [Example 33, 5-Chloro-4-{[(5-chloro-6-methoxypyridin-3-yl)oxy]methyl}-2-fluoro-N-(methylsulfonyl)benzamide] | 380 |
| [2H]C(C)(C)Oc1ncc(OCc2cc(F)c(C(=O)NS(C)(=O)=O)cc2Cl)cc1Cl [Example 34, 5-Chloro-4-{[(5-chloro-6-d1-isopropoxypyridin-3-yl)oxy]methyl}-2-fluoro-N-(methylsulfonyl)benzamide] | 82.2 |
| CC(C)Oc1ncc(OCc2cc(F)c(C(=O)NS(C)(=O)=O)cc2Cl)cc1Cl [Example 35, 5-Chloro-4-((5-chloro-6-isopropoxypyridin-3-yloxy)methyl)-2-fluoro-N-(methylsulfonyl)benzamide] | 28 |
| CC(C)C(F)(F)c1ncc(OCc2cc(F)c(C(=O)NS(C)(=O)=O)cc2Cl)cc1Cl [Example 36, 5-Chloro-4-({[5-chloro-6-(1,1-difluoro-2-methylpropyl)pyridin-3-yl]oxy}methyl)-2-fluoro-N-(methylsulfonyl)benzamide] | 52.7 |
| CS(=O)(=O)NC(=O)c1cc(Cl)c(COc2cnc(OCC(F)(F)C(F)F)c(Cl)c2)cc1F [Example 37, 5-Chloro-4-({[5-chloro-6-(2,2,3,3-tetrafluoropropoxy)pyridin-3-yl]oxy}methyl)-2-fluoro-N-(methylsulfonyl)benzamide] | 9.1 |
| CC(C)(C)c1ncc(OCc2cc(F)c(C(=O)NS(C)(=O)=O)cc2Cl)cc1Cl [Example 38, 4-{[(6-tert-Butyl-5-chloropyridin-3-yl)oxy]methyl}-5-chloro-2-fluoro-N-(methylsulfonyl)benzamide] | 21.5 |
| [2H]C([2H])([2H])C([2H])(Oc1ncc(OCc2cc(F)c(C(=O)NS(C)(=O)=O)cc2Cl)cc1Cl)C([2H])([2H])[2H] [Example 39, 5-Chloro-4-{[(5-chloro-6-d7-isopropoxypyridin-3-yl)oxy]methyl}-2-fluoro-N-(methylsulfonyl)benzamide] | 39.9 |
| CS(=O)(=O)NC(=O)c1cc(Cl)c(COc2cnc(OC(F)F)c(Cl)c2)cc1F [Example 41, 5-Chloro-4-({[5-chloro-6-(difluoromethoxy)pyridin-3-yl]oxy}methyl)-2-fluoro-N-(methylsulfonyl)benzamide] | 62.3 |
| CS(=O)(=O)NC(=O)c1cc(Cl)c(COc2cnc(C3CC3)c(Cl)c2)cc1F [Example 42, 5-Chloro-4-{[(5-chloro-6-cyclopropylpyridin-3-yl)oxy]methyl}-2-fluoro-N-(methylsulfonyl)benzamide] | 51.8 |
| CS(=O)(=O)NC(=O)c1cc(Cl)c(COc2cnc(OCC(F)(F)F)c(Cl)c2)cc1F [Example 43, 5-Chloro-4-({[5-chloro-6-(2,2,2-trifluoroethoxy)pyridin-3-yl]oxy}methyl)-2-fluoro-N-(methylsulfonyl)benzamide] | 42.5 |
| CS(=O)(=O)NC(=O)c1cc(Cl)c(COc2cnc(OCCC(F)(F)F)c(Cl)c2)cc1F [Example 44, 5-Chloro-4-({[5-chloro-6-(3,3,3-trifluoropropoxy)pyridin-3-yl]oxy}methyl)-2-fluoro-N-(methylsulfonyl)benzamide] | 25.8 |
| CC(C)(F)COc1ncc(OCc2cc(F)c(C(=O)NS(C)(=O)=O)cc2Cl)cc1Cl [Example 45, 5-Chloro-4-({[5-chloro-6-(2-fluoro-2-methylpropoxy)pyridin-3-yl]oxy}methyl)-2-fluoro-N-(methylsulfonyl)benzamide] | 58.2 |
| CS(=O)(=O)NC(=O)c1cc(Cl)c(COc2cnc(OCC(F)(F)C(F)(F)F)c(Cl)c2)cc1F [Example 46, 5-Chloro-4-({[5-chloro-6-(2,2,3,3,3-pentafluoropropoxy)pyridin-3-yl]oxy}methyl)-2-fluoro-N-(methylsulfonyl)benzamide] | 18 |
| COc1cc(COc2cnc(OCC(C)C)c(Cl)c2)ccc1C(=O)NS(C)(=O)=O [Example 47, 4-{[(5-Chloro-6-isobutoxypyridin-3-yl)oxy]methyl}-2-methoxy-N-(methylsulfonyl)benzamide] | 4390 |
| COc1cc(COc2cnc(OC(C)C)c(Cl)c2)ccc1C(=O)NS(C)(=O)=O [Example 48, 4-{[(5-Chloro-6-isopropoxypyridin-3-yl)oxy]methyl}-2-methoxy-N-(methylsulfonyl)benzamide] | > 3000 |
| CC(C)(Oc1ncc(OCc2cc(F)c(C(=O)NS(C)(=O)=O)cc2F)cc1Cl)C(F)(F)F [Example 49, 4-({[5-Chloro-6-(2,2,2-trifluoro-1,1-dimethylethoxy)pyridin-3-yl]oxy}methyl)-2,5-difluoro-N-(methylsulfonyl)benzamide] | 9.7 |
| CC(C)c1ncc2ncc(COc3cc(F)c(C(=O)NS(C)(=O)=O)cc3Cl)cn12 [Example 50] | > 3000 |
| COc1ncc(COc2ccc(C(=O)NS(C)(=O)=O)cc2Cl)cc1Cl [Example 51] | 6230 |
| CS(=O)(=O)NC(=O)c1ccc(COc2cccc3cnccc23)cc1 [Example 52] | > 3000 |
| CS(=O)(=O)NC(=O)c1ccc(COc2ccc3ccncc3c2)cc1 [Example 53] | > 3000 |
| CS(=O)(=O)NC(=O)c1cc(F)c(COc2cc(C(F)(F)F)c(Cl)cn2)cc1F [Example 55, 4-({[5-Chloro-4-(trifluoromethyl)pyridin-2-yl]oxy}methyl)-2,5-difluoro-N-(methylsulfonyl)benzamide] | > 1000 |
| CS(=O)(=O)NC(=O)c1cc(F)c(COc2ccc(C(F)(F)F)cn2)cc1F [Example 56, 2,5-Difluoro-N-(methylsulfonyl)-4-({[5-(trifluoromethyl)pyridin-2-yl]oxy}methyl)benzamide] | 6720 |
| CS(=O)(=O)NC(=O)c1cc(Cl)c(COc2cnc(C3CC3)c(C3CC3)c2)cc1F [Example 57, 5-Chloro-4-{[(5,6-dicyclopropylpyridin-3-yl)oxy]methyl}-2-fluoro-N-(methylsulfonyl)benzamide diethylamine salt.] | 153 |
| CC(C)Oc1ncc(OCc2cc(F)c(C(=O)NS(C)(=O)=O)cc2Cl)cn1 [Example 58, 5-Chloro-2-fluoro-4-{[(2-isopropoxypyrimidin-5-yl)oxy]methyl}-N-(methylsulfonyl)benzamide] | 6850 |
| CS(=O)(=O)NC(=O)c1cc(Cl)c(COc2cnc(C3CC3)c(OC(F)F)c2)cc1F [Example 59, 5-Chloro-4-({[6-cyclopropyl-5-(difluoromethoxy)pyridin-3-yl]oxy}methyl)-2-fluoro-N-(methylsulfonyl)benzamide diethylamine salt] | 356 |
| CS(=O)(=O)NC(=O)c1cc(F)c(COc2ncc(Cl)cc2Cl)cc1F [Example 60, 4-{[(3,5-dichloropyridin-2-yl)oxy]methyl}-2,5-difluoro-N-(methylsulfonyl)benzamide] | > 3000 |
| CS(=O)(=O)NC(=O)c1cc(F)c(COc2cc(C(F)(F)F)nc(C(F)(F)F)c2)cc1F [Example 61, 4-({[2,6-bis(trifluoromethyl)pyridin-4-yl]oxy}methyl)-2,5-difluoro-N-(methylsulfonyl)benzamide] | 1840 |
